The target of assay [1] is T1, rat GPR14 (U-II receptor) (Rattus norvegicus, UniProt P49684).
T1 construct: expressed in transfected cells
T1 sequence (P49684 1-386): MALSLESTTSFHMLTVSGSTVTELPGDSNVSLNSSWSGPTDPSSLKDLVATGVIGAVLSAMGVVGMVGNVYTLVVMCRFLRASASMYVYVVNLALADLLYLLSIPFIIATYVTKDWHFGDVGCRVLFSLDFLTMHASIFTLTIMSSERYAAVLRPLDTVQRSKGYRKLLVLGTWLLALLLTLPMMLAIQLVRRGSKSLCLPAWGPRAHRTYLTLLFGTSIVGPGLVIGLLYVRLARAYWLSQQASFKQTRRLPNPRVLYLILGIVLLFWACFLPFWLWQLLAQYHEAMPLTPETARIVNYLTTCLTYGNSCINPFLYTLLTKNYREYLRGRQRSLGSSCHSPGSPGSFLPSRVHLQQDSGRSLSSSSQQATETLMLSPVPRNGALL
Description: Rat UII Calcium Mobilization FLIPR Assay. The following applies: CHO cells transfected with rat GPR14; antagonist activity after 5 min incubation vs agonist (Ac)-CFWK(2-NaI)C-NH2 at 1 nM. It is filed as cell-based. The gist of the method:
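CHO cells stably expressing rat U-II receptor, seeded 24 h before assay, were loaded with FLIPR calcium dye in HBSS/20 mM HEPES/0.1% BSA/2.5 mM probenecid, pH 7.4, for 1 h at 37° C. Calcium mobilization then read by FLIPR at 23° C.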
(A change in cytosolic calcium serves as a functional read-out for many receptors and channels.)

The target in assay [2] is T2, Human UII (U-II receptor) in 6D9 human rhabdomyosarcoma cells (Homo sapiens, UniProt Q9UKP6).
T2 construct: 6D9: isolated by dilution subcloning of RMS13 cells, ATCC® Number: CRL-2061; host or cells: 6D9 human rhabdomyosarcoma cells (subclone of RMS13)
T2 sequence (Q9UKP6 1-389): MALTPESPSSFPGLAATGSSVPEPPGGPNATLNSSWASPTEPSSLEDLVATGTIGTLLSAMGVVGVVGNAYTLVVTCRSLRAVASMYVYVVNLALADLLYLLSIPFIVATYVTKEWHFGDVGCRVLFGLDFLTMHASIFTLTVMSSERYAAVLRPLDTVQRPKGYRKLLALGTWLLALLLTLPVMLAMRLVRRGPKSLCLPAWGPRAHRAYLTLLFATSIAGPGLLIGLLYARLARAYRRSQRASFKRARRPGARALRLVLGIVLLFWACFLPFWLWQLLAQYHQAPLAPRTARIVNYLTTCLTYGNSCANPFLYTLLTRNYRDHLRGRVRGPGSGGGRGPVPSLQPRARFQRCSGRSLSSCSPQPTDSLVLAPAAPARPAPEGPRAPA
Description: Human UII Calcium Mobilization Assay. In kind it is cell-based. Particulars: 6D9 human rhabdomyosarcoma cells, FLIPR TETRA, average; read-out: Human UII Ca+ Mobilization Average IC50.

In assay [3] the target is T3, UT receptors in HSMM (Human Skeletal Muscle Myoblasts) (Homo sapiens, UniProt Q9UKP6).
T3 sequence (Q9UKP6 1-389): T2 sequence (Q9UKP6 1-389)
Description: Human Radioligand Binding Assay ((^125I)-U-II binding to intact HSMM).

Each structure is given as a SMILES string. Where two headings read alike, the source gives them in different places.

As usually defined, the IC50 is the concentration that inhibits the measured activity by half. Usually Ki stands for a dissociation constant, usually derived from enzyme kinetics or from competition with a known ligand.

As to `CCN1CCN(c2cccc3c2CN([C@H](CCCn2ccnc2)c2ccc(OC)c(OC)c2)C3=O)CC1` [Cpd 32, 2-[(1R)-1-(3,4-dimethoxy-phenyl)-4-imidazol-1-yl-butyl]-4-(4-ethyl-piperazin-1-yl)-2,3-dihydro-isoindol-1-one], the half-inhibitory concentration (IC50) in assay [1] is 45 nM; in assay [2], 2040 nM. In assay [3], this molecule showed a Ki of 157 nM.

As to `CCN1CCN(c2cccc3c2CN([C@H](CCCSc2cccc[n+]2[O-])c2ccc(OC)c(OC)c2)C3=O)CC1` [Cpd 31, {(4R)-4-(3,4-dimethoxy-phenyl)-4-[4-(4-ethyl-piperazin-1-yl)-1-oxo-1,3-dihydro-isoindol-2-yl]-butylsulfanyl}-pyridine 1-oxide], the IC50 is 11 nM in assay [1] and 602 nM in assay [2]. The molecule further returned a Ki in assay [3] of 135 nM.

On to `CCNCCC[C@H](c1ccc(OC)c(OC)c1)N1Cc2c(cccc2N2CCN(CC)CC2)C1=O` [Cpd 69, 2-[(1R)-1-(3,4-dimethoxy-phenyl)-4-ethylamino-butyl]-4-(4-ethyl-piperazin-1-yl)-2,3-dihydro-isoindol-1-one], for which the IC50 is 820 nM in assay [1] and above 10000 nM in assay [2]. Also, in assay [3], the Ki was found to be 199 nM.

As for `CCN1CCN(c2cccc3c2CN(C(c2ccc(OC)c(OC)c2)C2CCN(S(=O)(=O)c4cccs4)CC2)C3=O)CC1` (stereo not drawn) [Cpd 45, 2-{(3,4-dimethoxy-phenyl)-[1-(thiophene-2-sulfonyl)-piperidin-4-yl]-methyl}-4-(4-ethyl-piperazin-1-yl)-2,3-dihydro-isoindol-1-one], the figures for the IC50 in assay [1] and in assay [2] were 465 nM and 3320 nM, respectively. The same molecule gave a Ki in assay [3] above 300 nM.

With `CCN1CCN(c2cccc3c2CN([C@H](CCCNS(N)(=O)=O)c2ccc(OC)c(OC)c2)C3=O)CC1` [Cpd 58, aminosulfonic acid {(4R)-4-(3,4-dimethoxy-phenyl)-4-[4-(4-ethyl-piperazin-1-yl)-1-oxo-1,3-dihydro-isoindol-2-yl]-butyl}-amide], the IC50 was found to be 81 nM in assay [1] and 449 nM in assay [2]. In assay [3], this molecule came in with a Ki of 109 nM.

As for `CCN1CCN(c2cccc3c2CN([C@H](CCCNc2nccc(C(F)(F)F)n2)c2ccc(OC)c(OC)c2)C3=O)CC1` [Cpd 22, 2-[(1R)-1-(3,4-dimethoxy-phenyl)-4-(4-trifluoromethyl-pyrimidin-2-ylamino)-butyl]-4-(4-ethyl-piperazin-1-yl)-2,3-dihydro-isoindol-1-one], the IC50 in assay [1] was determined as 3 nM; in assay [2], 187 nM. This molecule showed a Ki in assay [3] of 13 nM.

For the molecule `CCN1CCN(c2cccc3c2CN([C@H](CCCNC(=O)Nc2ccccc2)c2ccc(OC)c(OC)c2)C3=O)CC1` [Cpd 66, 1-{(4R)-4-(3,4-dimethoxy-phenyl)-4-[4-(4-ethyl-piperazin-1-yl)-1-oxo-1,3-dihydro-isoindol-2-yl]-butyl}-3-phenyl-urea], the IC50 in assay [1] worked out at 23 nM; in assay [2], 842 nM. In assay [3], the Ki amounted to 84 nM.

With `CCN1CCN(c2cccc3c2CN(C(CC2CCN(S(=O)(=O)c4cccs4)CC2)c2ccc(OC)c(OC)c2)C3=O)CC1` (stereo not drawn) [Cpd 18, 2-{1-(3,4-dimethoxy-phenyl)-2-[1-(thiophene-2-sulfonyl)-piperidin-4-yl]-ethyl}-4-(4-ethyl-piperazin-1-yl)-2,3-dihydro-isoindol-1-one], the IC50 was 9 nM in assay [1] and 659 nM in assay [2]. In addition, in assay [3], the Ki amounted to 19 nM.

`CCN1CCN(c2cccc3c2CN([C@H](CCCNc2c(N)c(=O)c2=O)c2ccc(OC)c(OC)c2)C3=O)CC1` [Cpd 76, 3-amino-4-{(4R)-4-(3,4-dimethoxy-phenyl)-4-[4-(4-ethyl-piperazin-1-yl)-1-oxo-1,3-dihydro-isoindol-2-yl]-butylamino}-cyclobut-3-ene-1,2-dione]: the IC50 in assay [1] is 46 nM; in assay [2], 674 nM. The Ki in assay [3] was determined as 33 nM.

For the molecule `CCN1CCN(c2cccc3c2CN([C@H](CCCNc2ccccc2)c2ccc(OC)c(OC)c2)C3=O)CC1` [Cpd 40, 2-[(1R)-1-(3,4-dimethoxy-phenyl)-4-phenylamino-butyl]-4-(4-ethyl-piperazin-1-yl)-2,3-dihydro-isoindol-1-one], the IC50 in assay [1] turned out to be 10 nM; in assay [2], 370 nM. For the same molecule, the Ki in assay [3] was determined as 75 nM.

For the molecule `CCN1CCN(c2cccc3c2CN([C@H](CCCNc2nc(OC)cc(OC)n2)c2ccc(OC)c(OC)c2)C3=O)CC1` [Cpd 10, 2-[(1R)-1-(3,4-dimethoxy-phenyl)-4-(4,6-dimethoxy-pyrimidin-2-ylamino)-butyl]-4-(4-ethyl-piperazin-1-yl)-2,3-dihydro-isoindol-1-one], the IC50 worked out at 4 nM in assay [1] and 617 nM in assay [2]. In addition, in assay [3], the Ki was found to be 81 nM.

Regarding `CCN1CCN(c2cccc3c2CN([C@H](CCCn2ccnc2C)c2ccc(OC)c(OC)c2)C3=O)CC1` [Cpd 103, 2-[(1R)-1-(3,4-dimethoxy-phenyl)-4-(2-methyl-imidazol-1-yl)-butyl]-4-(4-ethyl-piperazin-1-yl)-2,3-dihydro-isoindol-1-one], the values for the IC50 in assay [1] and in assay [2] were 141 nM and 1400 nM, respectively. Besides, in assay [3], the affinity corresponds to a Ki of 158 nM.

For `CCN1CCN(c2cccc3c2CN([C@H](CCCOCc2ccccc2Cl)c2ccc(OC)c(OC)c2)C3=O)CC1` [Cpd 47, 2-[(1R)-4-(2-chloro-benzyloxy)-1-(3,4-dimethoxy-phenyl)-butyl]-4-(4-ethyl-piperazin-1-yl)-2,3-dihydro-isoindol-1-one], the IC50 in assay [1] turned out to be 1300 nM; in assay [2] it was 6140 nM. For the same molecule, in assay [3], the Ki was above 300 nM.

In the case of `CC[N+]1(C)CCN(c2cccc3c2CN([C@H](CCCN(Cc2ccccc2)Cc2ccccc2)c2ccc(OC)c(OC)c2)C3=O)CC1` [Cpd 38, 4-{2-[(1R)-4-dibenzylamino-1-(3,4-dimethoxy-phenyl)-butyl]-1-oxo-2,3-dihydro-1H-isoindol-4-yl}-1-ethyl-1-methyl-piperazin-1-ium], the IC50 in assay [1] amounted to 185 nM; in assay [2], 2850 nM. The same molecule had a Ki in assay [3] above 300 nM.

`CCN1CCN(c2cccc3c2CN([C@H](CCCn2ccnc2C(C)C)c2ccc(OC)c(OC)c2)C3=O)CC1` [Cpd 104, 2-[(1R)-1-(3,4-dimethoxy-phenyl)-4-(2-isopropyl-imidazol-1-yl)-butyl]-4-(4-ethyl-piperazin-1-yl)-2,3-dihydro-isoindol-1-one]: the IC50 in assay [1] turned out to be 16 nM; in assay [2] it was 206 nM. The molecule further returned an inhibitory constant (Ki) in assay [3] of 46 nM.

Consider `CCN1CCN(c2cccc3c2CN([C@H](CCCNCc2cccs2)c2ccc(OC)c(OC)c2)C3=O)CC1` [Cpd 72, 2-{(1R)-1-(3,4-dimethoxy-phenyl)-4-[(thiophen-2-ylmethyl)-amino]-butyl}-4-(4-ethyl-piperazin-1-yl)-2,3-dihydro-isoindol-1-one], for which the results for the IC50 in assay [1] and in assay [2] were 6 nM and 59 nM, respectively. Also, in assay [3] (read-out: Human UII Average Binding Ki, intact HSMM, 0.150 nM (^125I)-U-II, 3 h, 25° C.), the Ki was 18 nM.

`CCN1CCN(c2cccc3c2CN([C@H](CCCNc2nccc(Cl)n2)c2ccc(OC)c(OC)c2)C3=O)CC1` [Cpd 11, 2-[(1R)-4-(4-chloro-pyrimidin-2-ylamino)-1-(3,4-dimethoxy-phenyl)-butyl]-4-(4-ethyl-piperazin-1-yl)-2,3-dihydro-isoindol-1-one]: the figures for the IC50 in assay [1] and in assay [2] were 1 nM and 496 nM, respectively. In assay [3], this molecule showed a Ki of 62 nM.

The values above are taken from patent publication US8008299B2, “Urotensin II receptor antagonists” (Janssen Pharmaceutica, N.V., priority 2007, dated 2011).
